Activity calls are given as the source filed them. How the calls were made is not given here.
Tests used:
[1] = molecular target: T1, Inositol-trisphosphate 3-kinase B (Homo sapiens) (UniProt P27987); assay: Inhibition of ITPKb in human Jurkat cells assessed as reduction in conversion of IP3 to IP4 using [3H]-myo-inositol incubated for 5 mins by beta-RAM radio-HPLC method; type: cell-based
T1 sequence (whole entry): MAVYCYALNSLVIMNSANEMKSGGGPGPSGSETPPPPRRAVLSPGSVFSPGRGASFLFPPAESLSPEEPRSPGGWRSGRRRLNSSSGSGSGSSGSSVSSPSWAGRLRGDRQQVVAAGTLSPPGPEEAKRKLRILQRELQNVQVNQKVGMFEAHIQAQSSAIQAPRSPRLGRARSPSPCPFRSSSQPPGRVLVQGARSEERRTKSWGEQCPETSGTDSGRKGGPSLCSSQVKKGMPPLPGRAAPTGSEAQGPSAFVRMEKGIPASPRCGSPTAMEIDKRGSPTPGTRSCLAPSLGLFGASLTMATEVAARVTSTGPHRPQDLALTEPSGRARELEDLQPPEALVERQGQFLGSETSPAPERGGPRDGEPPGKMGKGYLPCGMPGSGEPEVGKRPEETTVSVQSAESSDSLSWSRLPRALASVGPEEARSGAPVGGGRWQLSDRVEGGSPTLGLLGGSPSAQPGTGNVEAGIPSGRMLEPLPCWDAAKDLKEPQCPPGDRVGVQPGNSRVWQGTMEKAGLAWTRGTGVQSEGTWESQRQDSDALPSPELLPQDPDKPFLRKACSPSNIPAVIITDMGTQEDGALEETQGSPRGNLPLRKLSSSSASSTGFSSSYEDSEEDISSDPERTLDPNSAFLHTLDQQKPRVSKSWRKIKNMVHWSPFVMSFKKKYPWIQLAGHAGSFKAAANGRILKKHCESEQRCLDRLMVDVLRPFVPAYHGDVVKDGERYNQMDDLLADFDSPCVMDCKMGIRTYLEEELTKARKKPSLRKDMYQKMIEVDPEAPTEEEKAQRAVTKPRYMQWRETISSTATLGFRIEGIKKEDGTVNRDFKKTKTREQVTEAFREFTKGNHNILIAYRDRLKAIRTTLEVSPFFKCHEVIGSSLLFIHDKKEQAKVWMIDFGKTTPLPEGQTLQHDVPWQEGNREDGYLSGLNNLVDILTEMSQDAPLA

Kinase = molecular target: T2, Kinase (Mus musculus, UniProt B2RXC2); assay: Inhibition of mouse ITPKb (640 to 942 residues) expressed in Escherichia coli HK100 assessed as reduction in phosphorylation of IP3 to IP4 incubated for 60 mins by kinase-Glo ATP depletion assay
T2 sequence (B2RXC2 whole entry): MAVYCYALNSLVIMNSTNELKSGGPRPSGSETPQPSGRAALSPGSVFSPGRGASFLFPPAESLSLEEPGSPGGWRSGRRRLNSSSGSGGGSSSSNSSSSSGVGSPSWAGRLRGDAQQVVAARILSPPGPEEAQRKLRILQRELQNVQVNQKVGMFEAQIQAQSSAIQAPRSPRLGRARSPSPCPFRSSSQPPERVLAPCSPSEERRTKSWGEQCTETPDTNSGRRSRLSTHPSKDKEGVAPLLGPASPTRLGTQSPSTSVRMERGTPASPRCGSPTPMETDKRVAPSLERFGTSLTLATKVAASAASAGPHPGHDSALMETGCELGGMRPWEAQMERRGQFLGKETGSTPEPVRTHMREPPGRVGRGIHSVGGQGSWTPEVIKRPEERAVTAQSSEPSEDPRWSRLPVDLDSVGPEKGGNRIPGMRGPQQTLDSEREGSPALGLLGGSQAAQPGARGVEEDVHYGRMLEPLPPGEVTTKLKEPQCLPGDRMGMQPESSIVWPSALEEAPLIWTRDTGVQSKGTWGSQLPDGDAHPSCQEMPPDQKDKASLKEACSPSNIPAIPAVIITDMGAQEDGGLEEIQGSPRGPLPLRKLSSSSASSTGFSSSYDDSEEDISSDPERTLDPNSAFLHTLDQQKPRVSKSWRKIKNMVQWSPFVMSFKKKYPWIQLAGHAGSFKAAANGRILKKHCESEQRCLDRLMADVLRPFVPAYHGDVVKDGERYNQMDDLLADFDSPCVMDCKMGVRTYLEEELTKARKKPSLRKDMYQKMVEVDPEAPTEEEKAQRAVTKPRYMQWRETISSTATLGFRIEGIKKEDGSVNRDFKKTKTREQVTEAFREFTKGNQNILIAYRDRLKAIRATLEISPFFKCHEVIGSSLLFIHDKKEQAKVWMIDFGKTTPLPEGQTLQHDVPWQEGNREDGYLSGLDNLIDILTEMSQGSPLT

Row | inhibition [1] | IC50 (Kinase) | Compound
1 | Active |  | FC(F)(F)c1ccc(N2CCN(Cc3c[nH]nc3-c3cccs3)CC2)nc1
2 | Active |  | C[C@@H]1CN(Cc2c[nH]nc2C2=CCN(C(=O)CCO)CC2)CCN1c1ccc(C(F)(F)F)cn1
3 | Active |  | C[C@@H]1CN(Cc2c[nH]nc2C(=O)N2CC(O)C2)CCN1c1ccc(C(F)(F)F)cn1
4 | Active |  | C[C@@H]1CN(Cc2c[nH]nc2-c2c[nH]c(C(N)=O)c2)CCN1c1ccc(C(F)(F)F)cn1
5 | Active |  | C[C@@H]1CN(Cc2c[nH]nc2-c2cc(C(=O)O)co2)CCN1c1ccc(C(F)(F)F)cn1
6 | Active |  | CC(=O)N1CC=C(c2n[nH]cc2CN2CCN(c3ccc(C(F)(F)F)cn3)[C@H](C)C2)CC1
7 | Active | 10 µM | Cc1cnc(-c2n[nH]cc2CN2CCN(c3ccc(C(F)(F)F)cn3)[C@H](C)C2)[nH]1
8 | Active |  | C[C@@H]1CN(Cc2c[nH]nc2-c2nc(C#N)c[nH]2)CCN1c1ccc(C(F)(F)F)cn1
9 | Active |  | C[C@@H]1CN(Cc2c[nH]nc2-c2nc(C(F)(F)F)c[nH]2)CCN1c1ccc(C(F)(F)F)cn1
10 | Active |  | N#Cc1c[nH]c(-c2n[nH]cc2CN2CCN(c3ccc(C(F)(F)F)cn3)[C@H](C(F)(F)F)C2)c1
11 | Active |  | C[C@@H]1CN(Cc2c[nH]nc2-c2nc3cnccc3[nH]2)CCN1c1ccc(C(F)(F)F)cn1
12 | Active |  | C[C@@H]1CN(Cc2c[nH]nc2-c2ccc(C#N)c(=O)[nH]2)CCN1c1ccc(C(F)(F)F)cn1
13 | Active |  | C[C@@H]1CN(Cc2c[nH]nc2-c2cc(C(N)=O)c[nH]2)CCN1c1ccc(C(F)(F)F)cn1
14 | Active |  | C[C@@H]1CN(Cc2c[nH]nc2C(=O)Nc2ccncc2)CCN1c1ccc(C(F)(F)F)cn1
15 | Active |  | C[C@@H]1CN(Cc2c[nH]nc2C2CCNCC2)CCN1c1ccc(C(F)(F)F)cn1
16 | Active |  | C[C@@H]1CN(Cc2c[nH]nc2-c2nc(C(N)=O)c[nH]2)CCN1c1ccc(C(F)(F)F)cn1
17 | Active |  | C[C@@H]1CN(Cc2c[nH]nc2-c2nc(C(=N)N)c[nH]2)CCN1c1ccc(C(F)(F)F)cn1
18 | Active |  | C[C@@H]1CN(Cc2c[nH]nc2C(=O)Nc2nc[nH]c2C#N)CCN1c1ccc(C(F)(F)F)cn1
19 | Active |  | C[C@@H]1CN(Cc2c[nH]nc2-c2ccc(C(N)=O)[nH]2)CCN1c1ccc(C(F)(F)F)cn1
20 | Active |  | Cc1cc(NC(=O)c2n[nH]cc2CN2CCN(c3ccc(C(F)(F)F)cn3)[C@H](C)C2)n(CCN(C)C)n1
21 | Active |  | C[C@@H]1CN(Cc2c[nH]nc2-c2cc(C(=O)N(C)C)c[nH]2)CCN1c1ccc(C(F)(F)F)cn1
22 | Active |  | C[C@@H]1CN(Cc2c[nH]nc2-c2cc3ccccc3[nH]2)CCN1c1ccc(C(F)(F)F)cn1
23 | Active |  | C[C@@H]1CN(Cc2c[nH]nc2C(=O)Nc2n[nH]cc2C#N)CCN1c1ccc(C(F)(F)F)cn1
24 | Active |  | C[C@@H]1CN(Cc2c[nH]nc2-c2c[nH]c3ncccc23)CCN1c1ccc(C(F)(F)F)cn1
25 | Active |  | COC(=O)c1ccc(-c2n[nH]cc2CN2CCN(c3ccc(C(F)(F)F)cn3)[C@H](C)C2)o1
26 | Active |  | C[C@@H]1CN(Cc2c[nH]nc2C(=O)N2CCC(O)C2)CCN1c1ccc(C(F)(F)F)cn1 (some centres undefined)

Row | inhibition [1] | IC50 (Kinase) | Compound
27 | Active |  | C[C@@H]1CN(Cc2c[nH]nc2C2=CCN(C=O)CC2)CCN1c1ccc(C(F)(F)F)cn1
28 | Active |  | Cc1nc(-c2n[nH]cc2CN2CCN(c3ccc(C(F)(F)F)cn3)[C@H](C)C2)[nH]c1C
29 | Active |  | C[C@@H]1CN(Cc2c[nH]nc2-c2nc(-c3ccccc3)c[nH]2)CCN1c1ccc(C(F)(F)F)cn1
30 | Active |  | C[C@@H]1CN(Cc2c[nH]nc2-c2ccc(C#N)[nH]2)CCN1c1ccc(C(F)(F)F)cn1
31 | Active |  | CNC(=O)c1c[nH]c(-c2n[nH]cc2CN2CCN(c3ccc(C(F)(F)F)cn3)[C@H](C)C2)c1
32 | Active |  | C[C@@H]1CN(Cc2c[nH]nc2-c2ccc(C(N)=O)o2)CCN1c1ccc(C(F)(F)F)cn1
33 | Active |  | C[C@@H]1CN(Cc2c[nH]nc2/C=C2\NC(=O)NC2=O)CCN1c1ccc(C(F)(F)F)cn1
34 | Active |  | C[C@@H]1CN(Cc2c[nH]nc2-c2ccnc3[nH]ccc23)CCN1c1ccc(C(F)(F)F)cn1
35 | Active |  | C[C@@H]1CN(Cc2c[nH]nc2C2CCN(C=O)CC2)CCN1c1ccc(C(F)(F)F)cn1
36 | Active |  | C[C@@H]1CN(Cc2c[nH]nc2-c2cc(C(=O)N[C@@H](C)CO)c[nH]2)CCN1c1ccc(C(F)(F)F)cn1
37 | Active |  | C[C@@H]1CN(Cc2c[nH]nc2-c2nc3cc(F)ccc3[nH]2)CCN1c1ccc(C(F)(F)F)cn1
38 | Active |  | C[C@@H]1CN(Cc2c[nH]nc2C(=O)Nc2cc(-c3ccco3)n[nH]2)CCN1c1ccc(C(F)(F)F)cn1
39 | Active |  | C[C@@H]1CN(Cc2c[nH]nc2-c2nc3ccccc3[nH]2)CCN1c1ccc(C(F)(F)F)cn1
40 | Active |  | C[C@@H]1CN(Cc2c[nH]nc2-c2cc(C(=O)NCCO)c[nH]2)CCN1c1ccc(C(F)(F)F)cn1
41 | Active |  | C[C@@H]1CN(Cc2c[nH]nc2C(=O)N2CCC(O)CC2)CCN1c1ccc(C(F)(F)F)cn1
42 | Active |  | C[C@@H]1CN(Cc2c[nH]nc2-c2ccc3cnccc3c2)CCN1c1ccc(C(F)(F)F)cn1
43 | Active |  | C[C@@H]1CN(Cc2c[nH]nc2-c2c[nH]c(C#N)c2)CCN1c1ccc(C(F)(F)F)cn1
44 | Active |  | C[C@@H]1CN(Cc2c[nH]nc2-c2nc3c([nH]2)CCCC3)CCN1c1ccc(C(F)(F)F)cn1
45 | Active |  | C[C@@H]1CN(Cc2c[nH]nc2-c2cc(C(N)=O)co2)CCN1c1ccc(C(F)(F)F)cn1
46 | Active |  | C[C@@H]1CN(Cc2c[nH]nc2/C=C2\NC(=N)NC2=O)CCN1c1ccc(C(F)(F)F)cn1
47 | Active |  | C[C@@H]1CN(Cc2c[nH]nc2-c2nc3cc(C#N)ccc3[nH]2)CCN1c1ccc(C(F)(F)F)cn1
48 | Active |  | NC(=O)c1c[nH]c(-c2n[nH]cc2CN2CCN(c3ccc(C(F)(F)F)cn3)[C@H](C(F)(F)F)C2)c1
49 | Active |  | C[C@@H]1CN(Cc2c[nH]nc2/C=C2\NC(=S)NC2=O)CCN1c1ccc(C(F)(F)F)cn1
50 | Active |  | CC(O)CNC(=O)c1c[nH]c(-c2n[nH]cc2CN2CCN(c3ccc(C(F)(F)F)cn3)[C@H](C)C2)c1 (some centres undefined)
51 | Active |  | C[C@@H]1CN(Cc2c[nH]nc2-c2cc(C#N)c[nH]2)CCN1c1ccc(C(F)(F)F)cn1
52 | Active |  | C[C@@H]1CN(Cc2c[nH]nc2-c2ccc(C(=O)O)o2)CCN1c1ccc(C(F)(F)F)cn1

Row | Compound | inhibition [1] | IC50 (Kinase)
53 | C[C@@H]1CN(Cc2c[nH]nc2C2=CCNCC2)CCN1c1ccc(C(F)(F)F)cn1 | Active | 

Source: ChEMBL document CHEMBL3714741, “Compounds and compositions as ITPKB inhibitors” (2011)
